# Laboratory results published in US9061029B2, “Method of treating proliferative disorders and other pathological conditions mediated by Bcr-Abl, c-Kit, DDR1, DDR2 or PDGF-R kinase activity” (Novartis AG, priority 2009, dated 2015).
# Where two headings read alike, the source gives them in different places.
# How the values were obtained:
# [1] = concurrent intake of grapefruit juice; cited from earlier work
# [2] = 400 mg oral capsule, cited from earlier work
# [3] = administration of nilotinib in a fruit preparation, human subjects
# Procedure: All treatments were administered with 240 mL of water, in the morning, after an overnight fast of at least 10 hours. Subjects continued to fast until 4 hours after administration. […] Consumption of grapefruit, grapefruit juice, or any caffeinated beverages within 48 hours of study initiation was prohibited.
# At each time point, 2.5 mL of whole blood was drawn using a Serum Separator Vacutainer® (Becton, Dickinson and Company, Franklin Lakes, N.J., USA) tube. The tube was allowed to stand vertically at room temperature for 30 minutes prior to centrifugation at 5° C. for 10 minutes at 1100 g. Immediately after centrifugation, the upper serum sample was transferred and stored frozen at ≦−15° C. until shipped to the analytical site for sample analyses.
# The MTBE layer was transferred, evaporated to dryness, and reconstituted with 400 μl of an acetonitrile and 0.2% formic acid mixture (40:60, v/v). Chromatography was carried out using a Phenomenex Synergi™ Polar-RP column (particle size 4 μm, 50 mm×2 mm i.d.) (Phenomenex, Inc, Torrance, Calif.) held at room temperature. Elution of the analytes was performed using a isocratic elution at a flow rate of 0.5 mL/min with mobile phases of 0.2% formic acid in 10 mM aqueous ammonium formate: 0.2% formic acid in acetonitrile (60:40, v/v).
# [4] = light breakfast given 30 minutes prior to dosing
compound,measurement,setting,value
"Cc1cn(-c2cc(NC(=O)c3ccc(C)c(Nc4nccc(-c5cccnc5)n4)c3)cc(C(F)(F)F)c2)cn1 [nilotinib, 4-methyl-3-[[4-(3-pyridinyl)-2-pyrimidinyl]amino]-N-[5-(4-methyl-1H-imidazol-1-yl)-3-(trifluoromethyl)-phenyl]benzamide]",AUC increase,[1],29%
same,Cmax increase,[1],60%
same,increase in Cmax,[2]; after a high fat breakfast,112%
same,increase in total exposure (AUC0-t),[2]; after a high fat breakfast,82%
same,increase in Cmax,[2]; [4],55%
same,increase in total exposure (AUC0-t),[2]; [4],29%
same,safety and tolerability,[3],safe and well tolerated
